The values below are quoted from earlier work in US6537758B2, “Method for isolating nucleic acid from micronuclei separated from a cell” (The Salk Institute for Biological Studies, priority 1995, dated 2003).

Series [1] has as its system cells containing DMs.
Series [2] deals with HL60 cells. The conditions noted are these: low concentrations of HU.
The subject of series [3] is mouse cells with unstably amplified dihydrofolate reductase (DHFR) genes.

SMILES strings stand for the structures.

On to `NC(=O)NO` [hydroxyurea], for which the “elimination of genes amplified on DMs” value in series [1] (HU at concentrations that do not inhibit DNA synthesis or ribonucleotide reductase) is “eliminated”. Moreover, the micronuclei formation entry in series [1] (HU-treatment of cells containing DMs) is on record as “increase in micronuclei formation”. Besides, in series [2], the c-myc expression result is “decreased c-myc expression”, the differentiation entry was “induction of differentiation” and the “number of c-myc-containing DMs” value is “reduced the number of c-myc-containing DMs”. In series [3], the “rate of loss of unstably amplified DHFR genes” value is “increase the rate of loss”.
